Data from patent US7094909B2, “HIV protease inhibitors, compositions containing the same, their pharmaceutical uses and materials for their synthesis” (priority 2001, dated 2006).
pEC50: −log10 of the molar value. Read-outs that look alike come from different tables or passages of the source.

What was measured:
[1] = test system: HIV-1 (HIV-1 RF, HIV-1 NL4-3) in CEM-SS / MT-2 cells; experiment: Cytopathic effect (CPE) inhibition assay (XTT/MTT dye reduction); assay type: cell-based; conditions: for pEC50: Human immunodeficiency virus 1, NL43, read-out: Ave CPE EC50; for EC50: Human immunodeficiency virus 1, NL43, read-out: Ave CPE EC50 (mM)
How it was run: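 Readout is XTT reduction (A450, 4 h) after six days of culturing virus-infected (moi 0.025–0.819) or mock-infected CEM-SS/MT-2 cells, 2×10^4 per well, with half-log compound series. Antiviral EC50 and cytotoxic CC50 are relative to uninfected compound-free cells. Therapeutic index is CC50 divided by EC50.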

[2] = test system: HIV-1 NL4-3 or HIV-1 NL4-3(I84V/L90M); experiment: Susceptibility assay, p24 ELISA in infected MT-2 cells; assay type: cell-based; conditions: Human immunodeficiency virus 1, NL43, MT2, read-out: EC50 or IC50 (mM), values without asterisk (EC50)
Method: T-cell lines, CEM-SS, and MT-2, and viruses HIV-1 RF and HIV-1 NL4-3 (pNL4-3) were obtained from the National Institutes of Health (AIDS Research and Reference Reagent Program, Bethesda, Md.).
Compounds were tested in phenotypic susceptibility assays at Virologic, Inc., (See Petropoulos C. J., Parkin N. T., Limoli K. L., Lie Y. S., Wrin T., Huang W., Tian H., Smith D., Winslow G. A., Capon D J, Whitcomb J M. 2000, “A novel phenotypic drug susceptibility assay for human immunodeficiency virus type 1,” Antimicrob Agents Chemother 44(4):920–928) or using the assay described here. MT-2 cells were infected with either HIV-1 NL4-3 or HIV-1 NL4-3([…]) and incubated in the presence of serial 0.5 log dilutions of test compounds. Three days later, culture supernatants were collected and virus production, as determined by p24 ELISA, was assayed. Percent inhibition was calculated as p24 concentration in compound-treated samples as compared to infected, compound-free controls. Inhibition of viral replication is determined by measuring reduction in HIV p24 present in the culture supernatant, using a Beckman-Coulter p24HIV-1 Ag EIA kit and following the supplied protocol. Absorbance is read on a MRX microplate reader (Dynex Technologies). The EC50 was calculated as the concentration of compound that effected a decrease in the p24 production by infected, compound-treated cells to 50% of that produced by infected, compound-free cells.

[3] = target: T1, HIV-1 protease (Q7S mutant form) (Human immunodeficiency virus type 1 group M subtype B, UniProt P04585, Q495S); experiment: HIV-1 Protease RET assay; assay type: biochemical; conditions: Ave. Ki (nM), RET assay, Q7S enzyme, Morrison tight binding fit
T1 construct: made in house
How it was run: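 Ki values fitted with the Morrison tight-binding equation from steady-state RET cleavage (ex 340, em 490 nm) of 5 μM RE(EDANS)SQNYPIVQK(DABCYL)R. Buffer pH 4.8 acetate, 1M NaCl, 5 mM DTT, 1 mg/ml BSA, 10% DMSO; 2 nM Q7S mutant dimer, 37 °C, 12 min.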

Compound	pEC50 [1]	EC50 [2] [µM]	Ki [3] [nM]	EC50 [1] [µM]
Cc1c(O)cccc1C(=O)N[C@@H](Cc1ccccc1)[C@H](O)C(=O)N1CSC(C)(C)[C@H]1C(=O)NCc1ccc2c(c1)CCO2 [Example A9, (R)-3-((2S,3S)-2-Hydroxy-3-{[1-(3-hydroxy-2-methyl-phenyl)-methanoyl]-amino}-4-phenyl-butanoyl)-5,5-dimethyl-thiazolidine-4-carboxylic acid (2,3-dihydro-benzofuran-5-ylmethyl)-amide]	6.86	1.08	0.49	–
Cc1c(O)cccc1C(=O)N[C@@H](Cc1ccccc1)[C@H](O)C(=O)N1CSC(C)(C)[C@H]1C(=O)N[C@H]1CCCc2sccc21 [Example A50, 3-[2-Hydroxy-3-(3-hydroxy-2-methyl-benzoylamino)-4-phenyl-butyryl]-5,5-dimethyl-thiazolidine-4-carboxylic acid (4,5,6,7-tetrahydro-benzo[b]thiophen-4-yl)-amide]	7.62	0.125	< 0.1	–
C=CCCC(=O)[C@H]1N(C(=O)[C@@H](O)[C@H](Cc2ccccc2)NC(=O)c2cccc(O)c2C)CSC1(C)C [Example D1, N-[(1S,2S)-1-Benzyl-3-((R)-5,5-dimethyl-4-pent-4-enoyl-thiazolidin-3-yl)-2-hydroxy-3-oxo-propyl]-3-hydroxy-2-methyl-benzamide]	–	0.601	< 0.1	0.052
Cc1ccccc1CNC(=O)[C@H]1N(C(=O)[C@@H](O)[C@H](Cc2ccccc2)NC(=O)c2cccc(O)c2C)CSC12CCC2 [Example C32, 7-(2-Hydroxy-3-{[1-(3-hydroxy-2-methyl-phenyl)-methanoyl]-amino}-4-phenyl-butanoyl)-5-thia-7-aza-spiro[3.4]octane-8-carboxylic acid-2-methyl benzylamide]	8.05	0.19	< 0.1	–
C/C=C(\C)CNC(=O)[C@@H]1CC(F)(F)CN1C(=O)[C@@H](O)[C@H](Cc1ccccc1)NC(=O)c1cccc(O)c1C [Example C8, (S)-4,4-Difluoro-1-((2S,3S)-2-hydroxy-3-{[1-(3-hydroxy-2-methyl-phenyl)-methanoyl]-amino}-4-phenyl-butanoyl)-pyrrolidine-2-carboxylic acid ((E)-2-methyl-but-2-enyl)-amide]	–	1.42	1.5	0.152
Cc1occc1CNC(=O)[C@H]1N(C(=O)[C@@H](O)[C@H](Cc2ccccc2)NC(=O)c2cccc(O)c2C)CSC1(C)C [Example A53, (R)-3-((2S,3S)-2-Hydroxy-3-{[1-(3-hydroxy-2-methyl-phenyl)-methanoyl]-amino}-4-phenyl-butanoyl)-5,5-dimethyl-thiazolidine-4-carboxylic acid (2-methyl-furan-3-ylmethyl)-amide]	7.55	0.07	< 0.1	–
Cc1c(O)cccc1C(=O)N[C@@H](Cc1ccccc1)[C@H](O)C(=O)N1CSC2(CCCC2)[C@H]1C(=O)N[C@H]1CCCc2ccccc21 [Example C37, (R)-3-((2S,3S)-2-Hydroxy-3-{[1-(3-hydroxy-2-methyl-phenyl)-methanoyl]-amino}-4-phenyl-butanoyl)-1-thia-3-aza-spiro[4.4]nonane-4-carboxylic acid (1,2,3,4-tetrahydro-naphthalen-1-yl)-amide]	7.57	1.29	0.61	–
CCCNC(=O)[C@H]1N(C(=O)[C@@H](O)[C@H](Cc2ccccc2)NC(=O)c2cccc(O)c2C)CSC12CCCC2 [Example C33, (R)-3-((2S,3S)-2-Hydroxy-3-{[1-(3-hydroxy-2-methyl-phenyl)-methanoyl]-amino}-4-phenyl-butanoyl)-1-thia-3-aza-spiro[4.4]nonane-4-carboxylic acid propylamide]	7.35	1.27	0.13	–
